Experimental data published in PubChem BioAssay AID1918999 (Molecular Pharmacology Branch, DTP, NCI, 2023).
Where “and” joins values, the source holds several entries; their conditions need not be identical. Equal entries are not always repeated. Values belong to the compound of their own block, whether it stands above or below them.

Tested on: 556581-035-R-J1-PDC complex spheroid growth
Test: Anticancer human tumor 556581-035-R-J1-PDC patient-derived ovarian carcinoma cell line growth inhibition [AhR]
Conditions: for viability, T/C: stronger effect = lower value
In short: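 Complex tumor spheroids co-cultured with HUVEC and human MSC stroma; AhR antagonists tested in combination with standard-of-care and investigational agents. Top concentration at or near clinical Cmax (else 10 microM), half-log dilutions; growth expressed as percent test/control.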

[1] = curve of first compound, second compound 0.1 µM
[2] = curve of first compound, second compound 0.316 µM
[3] = curve of first compound, second compound 1 µM
[4] = curve of first compound, second compound 3.16 µM
[5] = curve of first compound, second compound 10 µM
[6] = second compound 0.1 µM, first compound 0.0316 µM
[7] = second compound 0.1 µM, first compound 0.1 µM
[8] = second compound 0.1 µM, first compound 0.316 µM
[9] = second compound 0.1 µM, first compound 1 µM
[10] = second compound 0.1 µM, first compound 3.16 µM
[11] = second compound 0.1 µM, first compound 10 µM
[12] = second compound 0.316 µM, first compound 0.0316 µM
[13] = second compound 0.316 µM, first compound 0.1 µM
[14] = second compound 0.316 µM, first compound 0.316 µM
[15] = second compound 0.316 µM, first compound 1 µM
[16] = second compound 0.316 µM, first compound 3.16 µM
[17] = second compound 0.316 µM, first compound 10 µM
[18] = second compound 1 µM, first compound 0.0316 µM
[19] = second compound 1 µM, first compound 0.1 µM
[20] = second compound 1 µM, first compound 0.316 µM
[21] = second compound 1 µM, first compound 1 µM
[22] = second compound 1 µM, first compound 3.16 µM
[23] = second compound 1 µM, first compound 10 µM
[24] = second compound 3.16 µM, first compound 0.0316 µM
[25] = second compound 3.16 µM, first compound 0.1 µM
[26] = second compound 3.16 µM, first compound 0.316 µM
[27] = second compound 3.16 µM, first compound 1 µM
[28] = second compound 3.16 µM, first compound 3.16 µM
[29] = second compound 3.16 µM, first compound 10 µM
[30] = second compound 10 µM, first compound 0.0316 µM
[31] = second compound 10 µM, first compound 0.1 µM
[32] = second compound 10 µM, first compound 0.316 µM
[33] = second compound 10 µM, first compound 1 µM
[34] = second compound 10 µM, first compound 3.16 µM
[35] = second compound 10 µM, first compound 10 µM
[36] = second compound 0.1 µM, first compound 0.00949 µM
[37] = second compound 0.1 µM, first compound 0.03 µM
[38] = second compound 0.1 µM, first compound 0.0949 µM
[39] = second compound 0.1 µM, first compound 0.3 µM
[40] = second compound 0.316 µM, first compound 0.00949 µM
[41] = second compound 0.316 µM, first compound 0.03 µM
[42] = second compound 0.316 µM, first compound 0.0949 µM
[43] = second compound 0.316 µM, first compound 0.3 µM
[44] = second compound 1 µM, first compound 0.00949 µM
[45] = second compound 1 µM, first compound 0.03 µM
[46] = second compound 1 µM, first compound 0.0949 µM
[47] = second compound 1 µM, first compound 0.3 µM
[48] = second compound 3.16 µM, first compound 0.00949 µM
[49] = second compound 3.16 µM, first compound 0.03 µM
[50] = second compound 3.16 µM, first compound 0.0949 µM
[51] = second compound 3.16 µM, first compound 0.3 µM
[52] = second compound 10 µM, first compound 0.00949 µM
[53] = second compound 10 µM, first compound 0.03 µM
[54] = second compound 10 µM, first compound 0.0949 µM
[55] = second compound 10 µM, first compound 0.3 µM
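For viability, T/C in this document: compound exposure lasted 7 days; 100% = DMSO vehicle control growth.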

IC50 [1]: > 10000 nM
IC50 [2]: > 10000 nM
IC50 [3]: > 10000 nM
IC50 [4]: > 10000 nM
IC50 [5]: > 10000 nM
SMILES: COc1cc(C2c3cc4c(cc3C(OC3OC5COC(C)OC5C(O)C3O)C3COC(=O)C23)OCO4)cc(OC)c1O (stereo unspecified) + Cc1ccccc1N=Nc1ccc(NC(=O)c2ccnn2C)c(C)c1
viability, T/C [6]: 109%
viability, T/C [7]: 101%
viability, T/C [8]: 85.4%
viability, T/C [9]: 71%
viability, T/C [10]: 68.8%
viability, T/C [11]: 52.5%
viability, T/C [12]: 110%
viability, T/C [13]: 106%
viability, T/C [14]: 85.1%
viability, T/C [15]: 75.7%
viability, T/C [16]: 71.5%
viability, T/C [17]: 51.4%
viability, T/C [18]: 95.9%
viability, T/C [19]: 106%
viability, T/C [20]: 92.1%
viability, T/C [21]: 69.7%
viability, T/C [22]: 66.5%
viability, T/C [23]: 53.9%
viability, T/C [24]: 91.9%
viability, T/C [25]: 104%
viability, T/C [26]: 94.2%
viability, T/C [27]: 72%
viability, T/C [28]: 62.5%
viability, T/C [29]: 58.7%
viability, T/C [30]: 93.2%
viability, T/C [31]: 98%
viability, T/C [32]: 89.5%
viability, T/C [33]: 75.8%
viability, T/C [34]: 69.7%
viability, T/C [35]: 56.8%

IC50 (curve of compound): > 10000 nM
SMILES: O=C(c1cc(Cc2n[nH]c(=O)c3ccccc23)ccc1F)N1CCN(C(=O)C2CC2)CC1
viability, T/C (compound 0.0316 µM): 100% and 98.6% and 97.2%
viability, T/C (compound 0.1 µM): 103% and 96.9% and 88.5%
viability, T/C (compound 0.316 µM): 95.3% and 93.3% and 86.6%
viability, T/C (compound 1 µM): 102% and 93.8% and 87.4%
viability, T/C (compound 3.16 µM): 94.5% and 91.3% and 93.1%
viability, T/C (compound 10 µM): 74.8% and 82.6% and 69.8%

IC50 [1]: > 3000 nM
IC50 [2]: 1750 nM
IC50 [3]: > 3000 nM
IC50 [4]: > 3000 nM
IC50 [5]: > 3000 nM
SMILES: O=C(C=Cn1cnc(-c2cc(C(F)(F)F)cc(C(F)(F)F)c2)n1)NNc1cnccn1 + Cc1ccccc1N=Nc1ccc(NC(=O)c2ccnn2C)c(C)c1
viability, T/C [36]: 100%
viability, T/C [37]: 99.8%
viability, T/C [38]: 80.3%
viability, T/C [39]: 78.5%
viability, T/C (second compound 0.1 µM, first compound 0.949 µM): 72.5%
viability, T/C (second compound 0.1 µM, first compound 3 µM): 54.4%
viability, T/C [40]: 106%
viability, T/C [41]: 92.7%
viability, T/C [42]: 91%
viability, T/C [43]: 73.3%
viability, T/C (second compound 0.316 µM, first compound 0.949 µM): 60.7%
viability, T/C (second compound 0.316 µM, first compound 3 µM): 40.8%
viability, T/C [44]: 93%
viability, T/C [45]: 93.4%
viability, T/C [46]: 85.5%
viability, T/C [47]: 84.4%
viability, T/C (second compound 1 µM, first compound 0.949 µM): 72.5%
viability, T/C (second compound 1 µM, first compound 3 µM): 49.7%
viability, T/C [48]: 80.3%
viability, T/C [49]: 87.7%
viability, T/C [50]: 79.8%
viability, T/C [51]: 68.4%
viability, T/C (second compound 3.16 µM, first compound 0.949 µM): 72.2%
viability, T/C (second compound 3.16 µM, first compound 3 µM): 60.4%
viability, T/C [52]: 81.1%
viability, T/C [53]: 81.6%
viability, T/C [54]: 82.7%
viability, T/C [55]: 82.4%
viability, T/C (second compound 10 µM, first compound 0.949 µM): 71.9%
viability, T/C (second compound 10 µM, first compound 3 µM): 56.9%

IC50 (curve of compound): > 100 nM and 86.9 nM
SMILES: CC[C@@]1(O)C(=O)OCc2c1cc1n(c2=O)Cc2cc3c(CN(C)C)c(O)ccc3nc2-1
viability, T/C (compound 0.000316 µM): 101% and 94.3% and 103%
viability, T/C (compound 0.001 µM): 103% and 90.5% and 99.5%
viability, T/C (compound 0.00316 µM): 91.3% and 91.8% and 95.9%
viability, T/C (compound 0.01 µM): 87.9% and 84.7% and 81.2%
viability, T/C (compound 0.0316 µM): 77.2% and 66.1% and 69.9%
viability, T/C (compound 0.1 µM): 54.1% and 51.6% and 47%

IC50 [1]: 11.7 nM
IC50 [2]: 16.4 nM
IC50 [3]: 15.7 nM
IC50 [4]: 11.5 nM
IC50 [5]: 12.1 nM
SMILES: CCc1c2c(nc3ccc(O)cc13)-c1cc3c(c(=O)n1C2)COC(=O)[C@]3(O)CC + CC(CO)NC(=O)c1cc(-c2ccc(Cl)cc2)nn(-c2cnn(C)c2)c1=O
viability, T/C (second compound 0.1 µM, first compound 0.000949 µM): 77.2%
viability, T/C (second compound 0.1 µM, first compound 0.003 µM): 73.5%
viability, T/C [36]: 49.5%
viability, T/C [37]: 36.7%
viability, T/C [38]: 19.2%
viability, T/C [39]: 11.6%
viability, T/C (second compound 0.316 µM, first compound 0.000949 µM): 81.5%
viability, T/C (second compound 0.316 µM, first compound 0.003 µM): 79.6%
viability, T/C [40]: 60.7%
viability, T/C [41]: 36.9%
viability, T/C [42]: 20.6%
viability, T/C [43]: 12.1%
viability, T/C (second compound 1 µM, first compound 0.000949 µM): 77.3%
viability, T/C (second compound 1 µM, first compound 0.003 µM): 74.2%
viability, T/C [44]: 59.5%
viability, T/C [45]: 36.8%
viability, T/C [46]: 21.4%
viability, T/C [47]: 11.3%
viability, T/C (second compound 3.16 µM, first compound 0.000949 µM): 73.6%
viability, T/C (second compound 3.16 µM, first compound 0.003 µM): 67%
viability, T/C [48]: 52.6%
viability, T/C [49]: 34.9%
viability, T/C [50]: 18%
viability, T/C [51]: 9.46%
viability, T/C (second compound 10 µM, first compound 0.000949 µM): 80.2%
viability, T/C (second compound 10 µM, first compound 0.003 µM): 69.9%
viability, T/C [52]: 56.9%
viability, T/C [53]: 30%
viability, T/C [54]: 18%
viability, T/C [55]: 8.73%

IC50 (curve of compound): > 300 nM
SMILES: Nc1ncn(C2CC(O)C(CO)S2)c(=O)n1 (stereo unspecified)
viability, T/C (compound 0.000949 µM): 92% and 102% and 111%
viability, T/C (compound 0.003 µM): 109% and 115% and 113%
viability, T/C (compound 0.00949 µM): 102% and 106% and 113%
viability, T/C (compound 0.03 µM): 88% and 106% and 100%
viability, T/C (compound 0.0949 µM): 82.2% and 87.7% and 100%
viability, T/C (compound 0.3 µM): 67.3% and 67.2% and 64.9%

IC50 [1]: > 10000 nM
IC50 [2]: > 10000 nM
IC50 [3]: > 10000 nM
IC50 [4]: > 10000 nM
IC50 [5]: > 10000 nM
SMILES: O=C(c1cc(Cc2n[nH]c(=O)c3ccccc23)ccc1F)N1CCN(C(=O)C2CC2)CC1 + Cc1ccccc1N=Nc1ccc(NC(=O)c2ccnn2C)c(C)c1
viability, T/C [6]: 100%
viability, T/C [7]: 92.5%
viability, T/C [8]: 89.2%
viability, T/C [9]: 95%
viability, T/C [10]: 78.3%
viability, T/C [11]: 76.1%
viability, T/C [12]: 103%
viability, T/C [13]: 88.2%
viability, T/C [14]: 87.8%
viability, T/C [15]: 97.3%
viability, T/C [16]: 87.8%
viability, T/C [17]: 72.3%
viability, T/C [18]: 92.7%
viability, T/C [19]: 96.8%
viability, T/C [20]: 93.3%
viability, T/C [21]: 99.5%
viability, T/C [22]: 93.3%
viability, T/C [23]: 76.6%
viability, T/C [24]: 89%
viability, T/C [25]: 93.7%
viability, T/C [26]: 84.2%
viability, T/C [27]: 80.9%
viability, T/C [28]: 82.4%
viability, T/C [29]: 77.5%
viability, T/C [30]: 78.2%
viability, T/C [31]: 82.3%
viability, T/C [32]: 82.5%
viability, T/C [33]: 82.6%
viability, T/C [34]: 82.4%
viability, T/C [35]: 74.8%
